Data taken from patent publication US20070264229A1, “Peptides for Treatment of Autoimmune Disease” (priority 2004, published 2007).
Read-outs that look alike come from different tables or passages of the source.

Key:
[1] = system: spleen and lymph node cells of SJL/J mice; assay: Cytokine measurement by ELISA in cultures from immunized SJL/J mice; type: cell-based, mouse; conditions: re-stimulated with cognate peptide 2 days, FIG. 4
Protocol: After ten days, single cell suspensions derived from lymph nodes and spleens were re-stimulated with the corresponding peptides in the presence of antigen presenting cells for two days. Culture supernatants were analyzed for amount of secretion of IL-2, IL-4, IL-10 and IFN-γ by ELISA.
Cytokine mAb directed against each of IL-2, IL-4, IL-10, and IFN-γ was coated into wells of 96-well plates at a concentration of 1 μg/ml overnight. Plates were washed and were treated with blocking solution (Kierkegaard and Perry, Gaithersburg, Md.), followed by incubation of each of the cytokine standards and the culture supernatants overnight at 4° C. After washing, plates were incubated with corresponding biotinylated anti-cytokine-detecting mAb (1 μg/ml) for 2 hrs. Plates were developed by addition of avidin/peroxidase and its substrate. The mAb pairs used were from the following clones: IL-2: JES6-A112, and JES6-5H4; IL-4: 11B11 and BVD6-24G2; IL-10: JES5-16E3 and SXC-1; and IFN-γ: R4-6A2 and XMG 1.2 (PharMingen).

[2] = system: PLP139-151-specific CD4+ T cells; assay: Detection of PLP 139-151-reactive CD4+ T cells with I-As/PLP 139-151 tetramers; type: in vivo, mouse; conditions: SJL mice immunized with PLP139-151 alone, cultured 4 days, FIG. 7A
Protocol: After 10 days, lymphocytes were cultured with PLP 139-151. Four days later, after gating with anti-CD4, anti-CD25, and 7-amino-actinomycin D (7-AAD), live cells were incubated with I-A^s tetramers with PLP 139-151 (left) or with control peptide TMEV 70-86 (right) for 3 hrs. The I-A^s/tetramer-stained cells were determined in live CD4^+ T cell subset after eliminating dead cells (7-AAD positive).
SJL/J mice in groups of 3 animals were immunized with CFA alone or with PLP 139-151, with or without each of the peptides (75 μg each/mouse) in CFA. On day 10, all mice were sacrificed, and single cell suspensions were prepared and cultured at a density of 5×10^6 cells per ml in DMEM medium containing 10% fetal calf serum (FCS), 2 mM L-glutamine, 10 mM HEPES, 2 mM mercaptoethanol, penicillin (1000 U/ml) and streptomycin (1 μg/ml) (Biowhittaker, Walkersville, Md.). The cultures from each of the above groups were re-stimulated with PLP 139-151 with or without peptides (25 μg per ml). The mice treated with CFA only were used as negative control to validate immunizations; the PLP 139-151-immunized mice were used as positive controls to which the effect of peptides on PLP 139-151-specific CD4^+ T cell responses was compared.
After 4 days of culturing, cell suspensions were subjected to Ficoll-Hypaque density gradient centrifugation and were washed twice using PBS. […]

[3] = system: spleen and lymph node cells of SJL/J mice; conditions: copolymer, Illés 2004 / Stern 2004 PNAS; cited from earlier work
[4] = target: T1, HLA-DR2 (DRA/DRB1*1501) (Homo sapiens, UniProt P01903+P01911); assay: Competitive binding assay for HLA-DR2: inhibition of biotinylated MBP 85-99 binding
T1 construct: isolate soluble HLA-DR2 molecules which had been expressed in Drosophila S2 cells; made in house; host or cells: Drosophila S2 cells
Protocol: The reaction mixtures were transferred to plates coated with LB3.1 Ab specific to HLA DR2 molecules. Following addition of streptavidin-conjugated alkaline phosphatase, absorbance was measured at 450 nm by using a microtiter plate reader. Percent inhibition was calculated as described in the Materials and Methods. […] These studies were performed as described ([…]. et al. 2002. J Clin Invest 109:1635). […] Antigen presentation assay was performed as described previously [[…]. et al. 2001 Hum Immunol 62:753].

[5] = system: PLP139-151 specific cell line; assay: Cross-reactivity with PLP139-151 specific cell line; type: cell-based, mouse; conditions: FIG. 3B
Protocol: The proliferative responses were measured as CPM after pulsing with ^3[H] thymidine.

[6] = system: EAE in SJL/J mice
[7] = system: EAE in HLA-DR2 and MBP85-99-specific TCR double tg mice; conditions: previous study, Illés 2004 PNAS 101:11749; cited from earlier work
[8] = system: MBP85-99-specific transgenic (hVβ2+CD4+) and endogenous (hVβ2−CD4+) T cells; assay: Cross-reactivity: proliferation of sorted transgenic and endogenous CD4+ T cells from humanized mice; type: cell-based, mouse; conditions: 10 μg/ml MBP85-99 or 100 μg/ml peptide, FIG. 3A
Protocol: To sort human TCR transgenic T cells specific to MBP 85-99, splenocytes from humanized mice were incubated with anti-CD4-APC (clone GK1.5, obtained from PharMingen, San Diego, Calif.) and anti-human Vβ2-PE (Immunotech, Marseille, France) at room temperature for 20 min. After washing twice, tg and endogenous or non-tg CD4 T cells (hVβ2^−CD4 cells) were sorted using a FACS Vantage SE apparatus (Becton Dickinson, San Diego, Calif.). The purity of fractionated hVβ2^+CD4^+ and hVβ2^−CD4^+ T cells was determined to be 98-99%.
SJL/J mice were immunized with PLP 139-151 or with each of the peptides (100 μg per mouse) emulsified in complete Freund's adjuvant (CFA; Difco Laboratories, Detroit, Mich.). Ten days later, single cell suspensions were prepared from spleens and lymph nodes, and were stimulated and re-stimulated with corresponding peptides at a concentration of 10 μg/ml in the presence of APC. After two rounds of stimulation, viable lymphocytes were separated by Ficoll-Hypaque density gradient centrifugation and were tested for specificity at a dose range of 0 to 50 μg/ml. NASE 101-120 peptide, which also binds I-A^s was used as a negative control. Lymphocytes were cultured in 96-well plates at a density of 5×10^5 cells per ml for 48 hrs, and were pulsed with ^3[H]-thymidine, 1 μCi per well. After sixteen hours of culture, plates were harvested and a Wallac scintillation counter (model 1250) was used to analyze the proliferative response determined by amount of ^3[H]-thymidine incorporation CPM. To determine the proliferative response of each of tg T cells expressing HLA-DR2 and human MBP 85-99-specific TCR, and non-tg T cells, the cells fractionated by flow cytometry were seeded in complete medium at 4×10^5 cells/well in 96-well U-bottom microtiter plates. Irradiated splenocytes of humanized mice were used as APC.
Therefore, MBP85-99-specific transgenic (hVβ2^+CD4^+) and endogenous (non-transgenic, hVβ2^−CD4^+) T cells were sorted by flow cytometry from spleen cells of humanized double transgenic mice.

[9] = system: relapsing-remitting MS; conditions: relapsing-remitting forms of MS, cited from earlier work

## PLP139-151: one of the most immunodominant and encephalitogenic epitopes of PLP in SJL/J mice (CHCLGKWLGHPDK; UniProt P60202 139-151, looked up, fragment)
[1]
  IFN-γ production: produced in significant amounts
  IL-2 production: produced in significant amounts
  Secretion of IL-4: comparable in all of the cultures
[2]
  expansion of PLP tetramer reactive cells: 1.5%

## poly(F,Y,A,K)n [FYAK]
[3]
  induction of immunosuppressive cytokines IL-4 and IL-10: most effective

## poly[Y, E, A, K]n [Cop1]
[4]; Binding of biotinylated MBP (0.5 μM) by peptide competitor (1 μM)
  % inhibition: 8%
[4]; recombinant HLA-DR2, FIG. 1A and Table 1
  inhibition of binding of biotinylated MBP 85-99 to HLA-DR2 (in words): less efficiently than peptides J1, J2, J3 and J5
[5]
  response of PLP139-151 specific cell line (cross reactivity): did not cross-react
[6]; at around day 22, co-immunized with PLP139-151, FIG. 5B
  mean maximum score: 2.5
[6]; co-immunized with PLP139-151, FIG. 5B
  severity of EAE (in words): moderately suppressed
[7]
  mean maximal score: 3.5
[8]
  proliferation of MBP85-99-specific transgenic or endogenous CD4+ cells: did not cross-react
[9]
  reduction of relapse rate: about 30%
[9]; listed as Copolymer 1
  reduction of relapse rate: 30%
